Test results from patent US20250177341A1, “DIETARY TRIPROPIONIN SUPPLEMENTATION TO REDUCE ADIPOSITY AND IMPROVE GLUCOSE HOMEOSTASIS” (Wisconsin Alumni Research Foundation, priority 2023, published 2025).

Columns and labels:
[1] = Experiment 1: high-fat diet supplemented with tripropionin, body weight, food consumption, body composition by NMR; set-up: species or system mice; settings: mouse, in vivo
Source text: Experiment 1: Male C57BL/6J mice were ordered from Jackson Laboratories (Bar Harbor, ME) maintained on chow (Teklad 8604, Inotiv, Madison, WI) and housed in a chlorinated water rack system in cages with cornhusk bedding and ALPHA-twist™. At 11 weeks of age, the mice were switched to either a glycerol (TD220541) or tripropionin diet (TD220540) from Envigo (Madison, WI) with a sample size of 6 mice per treatment. […] Mice were maintained on their respective diets for an additional 8 weeks and then transferred to single-housed metabolic cages (Promethion Core system, Sable Systems International, North Las Vegas, NV) where body weight food intake and activity level was monitored. During this period, fat and lean mass were monitored using nuclear magnetic resonance (NMR) machine fitted for mice (LF90 Body Composition Analyzer, Bruker Corporation, Billerica, MA). […]

[2] = Experiment 1: oral glucose tolerance test; assay type: in vivo; settings: four weeks after diet change, vs glycerol-fed mice
Procedure: To assess the effect of tripropionin on adiposity and glucose homeostasis, we fed 11-week-old male C57BL/6J mice a high-fat diet (45% kcal from fat) (HFD) supplemented with either 5.3% tripropionin (w/w) or 5.3% glycerol as a control. Mice were maintained on these diets for 13 weeks, during which food consumption and body weight were measured and an oral glucose tolerance test (OGTT) and insulin tolerance test (ITT) were performed (FIG. 1A). Additionally, body composition was monitored via NMR during the last 2 weeks before sacrifice.
Experiment 1: Male C57BL/6J mice were ordered from Jackson Laboratories (Bar Harbor, ME) maintained on chow (Teklad 8604, Inotiv, Madison, WI) and housed in a chlorinated water rack system in cages with cornhusk bedding and ALPHA-twist™. […] Mice were maintained on their respective diets for an additional 8 weeks and then transferred to single-housed metabolic cages (Promethion Core system, Sable Systems International, North Las Vegas, NV) where body weight food intake and activity level was monitored. During this period, fat and lean mass were monitored using nuclear magnetic resonance (NMR) machine fitted for mice (LF90 Body Composition Analyzer, Bruker Corporation, Billerica, MA). […]
Prior to OGTT, mice were placed in fresh cages fasted for 4 hours. […] Blood glucose levels were measured at regular intervals between 15 and 120 minutes.

[3] = Experiment 1: insulin tolerance test; set-up: species or system mice; settings: mouse, in vivo
Source text: Experiment 1: Male C57BL/6J mice were ordered from Jackson Laboratories (Bar Harbor, ME) maintained on chow (Teklad 8604, Inotiv, Madison, WI) and housed in a chlorinated water rack system in cages with cornhusk bedding and ALPHA-twist™. At 11 weeks of age, the mice were switched to either a glycerol (TD220541) or tripropionin diet (TD220540) from Envigo (Madison, WI) with a sample size of 6 mice per treatment. […] One week later, mice were subjected to an ITT. […] Mice were sacrificed at 24 weeks of age.
The ITT was performed one week after the OGTT. Mice were fasted for 4 hours in fresh cages and baseline blood glucose levels were taken from tail blood. Insulin was administered at a rate of 0.75 IU per Kg body weight via IP injection. Blood glucose levels were monitored as described for OGTT. Insulin tolerance curves are expressed as the relative ratio of blood glucose from the baseline.

[4] = Experiment 2: obese HFD-fed mice switched to tripropionin diet, body weight and body composition; settings: mouse, in vivo
Procedure: (§1) We next tested the anti-adipogenic effects of tripropionin in metabolically challenged mice. To do this, we fed a HFD for 10 weeks to induce insulin resistance and obesity and then switched mice to either the tripropionin or glycerol diet for 5 weeks (FIG. 2A). […] Mice were monitored in metabolic cages to measure respiratory quotient (RQ) for the initial 48 hours after diet change.
(§2) Experiment 2: Male C57BL/6J mice were ordered from Jackson Laboratories (Bar Harbor, ME) maintained on a chow diet and housed in a chlorinated water rack system. Mice were switched to the HFD and maintained on this diet for 10 weeks at which point mice were fed either the glycerol or the tripropionin diets (n=6 mice per group). Mice were transferred to singly housed metabolic cages, as described above, to measure respiratory quotient, body weight, food intake, and energy expenditure. Five weeks after diet change mice underwent an OGTT and then an ITT one week later.

[5] = Experiment 2: respiratory quotient in metabolic cages; set-up: species or system mice; settings: mouse, in vivo
Procedure: as §1, §2

[6] = Experiment 3: gnotobiotic mice colonized with human fecal microbiota, body weight; settings: mouse, in vivo
Source text: To check whether the effects of tripropionin supplementation are consistent in the context of a human microbiome, we used a gnotobiotic mouse model colonized with human fecal microbiota. We colonized germ-free mice with a complex community of human fecal microbiota, induced metabolic dysregulation though feeding a high-fat diet for 8 weeks, and subjected the mice to a tripropionin- or glycerol-supplemented diet (FIG. 3A).
At 5 and 6 weeks of age mice were placed in Allentown Sentry SPP IVC rack system (Allentown Inc., Allentown, NJ) and fed a HFD (TD08811, Envigo). Mice were then colonized with fecal microbiota from a human donor fecal specimen via gavage with a fecal slurry. The fecal slurry was prepared by collecting 200-500 mg of frozen feces and adding it to anaerobic CMM broth in an anaerobic chamber. The mixture was vortexed for 1 minute and then placed on ice until gavaging (less than 1 hour after preparation). Mice were maintained on the HFD for an additional 6 weeks before being switched to either the glycerol or tripropionin diets (n=4-5 per group). Four weeks after diet change mice were subjected to an OGTT followed by an ITT a week later. Mice were euthanized one week after ITT.

[7] = Experiment 3: insulin tolerance test in humanized gnotobiotic mice; settings: mouse, in vivo
Source text: We colonized germ-free mice with a complex community of human fecal microbiota, induced metabolic dysregulation though feeding a high-fat diet for 8 weeks, and subjected the mice to a tripropionin- or glycerol-supplemented diet (FIG. 3A).
Experiment 3: Germ-free (GF) male mice (C57BL/6J) were housed in sterile isolators and maintained on autoclaved chow (LabDiet 5021; LabDiet, St. Louis, MO) and sterile water ad libitum. GF cages contained Alpha-dri® (Shepherd Specialty Papers, Kalamazoo, MI) bedding along with paper huts (Bio-Huts, Bio-Serv, Flemington, NJ) and ALPHA-twist™ (Shepherd Specialty Papers) for enrichment. Monthly tests were conducted in each isolator to confirm GF status of the mice. These included a growth test of feces in rich media for 7 days at 37° C. and checking for amplification of the 16S rRNA gene using universal primers. At 5 and 6 weeks of age mice were placed in Allentown Sentry SPP IVC rack system (Allentown Inc., Allentown, NJ) and fed a HFD (TD08811, Envigo). Mice were then colonized with fecal microbiota from a human donor fecal specimen via gavage with a fecal slurry. […]
The ITT was performed one week after the OGTT. […] Blood glucose levels were monitored as described for OGTT. Insulin tolerance curves are expressed as the relative ratio of blood glucose from the baseline.

For `CCC(=O)OCC(COC(=O)CC)OC(=O)CC` [tripropionin, 2,3-di(propanoyloxy) propyl propanoate], the body weight [1] was “significantly reduced body weight”, the “fat mass (NMR)” value [1] was “primarily due to differences in fat mass” and the “glucose tolerance (OGTT)” value [2] was “improved glucose tolerance”. For the same compound, the “insulin sensitivity (ITT)” value [3] was “improved insulin sensitivity”, the body weight [4] was “reduced body weight” and the “fat mass (NMR)” value [4] was “reduction in fat mass”. The “onset of body weight reduction” value [4] was “significant differences observed just three days after the diet change”, the “respiratory quotient (RQ)” value [5] was “reduced” and the body weight [6] was “reduced body weight”. For the same compound, the “insulin sensitivity (ITT)” value [7] was “improved insulin sensitivity”.
